Test results: patent US20240209325A1, “CANCER PROPHYLAXIS AND THERAPY USING TARGETED VIRAL NANOPARTICLES” (priority 2021, published 2024)
“Also recorded” adds a separate entry of the source.

Experiments:
[1] = Biodistribution of Cy5-labeled CPMV and CCMV particles after i.v. injection (ex vivo IVIS); conditions: for accumulation/clearance in liver (share of fluorescence signal): Cy5-labeled particles, 200 μg i.v., organs harvested after 24 h; for lung homing (in words): healthy and B16F10 tumor-bearing mice, i.v., 24 h
Procedure: Healthy and B16F10 metastatic tumor-bearing C57BL/6 female mice were used for biodistribution studies of the Cy5-labeled CPMV and CCMV from Section 2. B16F10 cells (200,000 cells/mouse) were administered i.v. and the tumors were matured for one week. […] After 24 hours, the lungs were harvested and then imaged and quantified for fluorescence using the IVIS (Xenogen).
Both healthy and B16F10 tumor-bearing mice were injected with native and H6/G3-conjugated CPMV and CCMV; to enable tracking the nanoparticles were labeled with Cy5. Lungs and other organs were harvested 24 h following intravenous (i.v.) nanoparticle injection and imaged ex vivo to observe localization of the nanoparticles in the lungs, spleen, kidney, and liver (FIG. 3A).

[2] = test system: RAW-Blue cells: Toll-like receptor (TLR) and NOD stimulation; experiment: RAW-Blue immunogenicity assay (SEAP, QUANTI-Blue); format: cell-based; conditions: for immunogenicity, activation of NF-κB and AP-1, CPMV compared to CCMV (in words): FIG. 6B, 0.5 μg, 18 hours per method
Procedure: The immunogenicity of CPMV and CCMV was compared through a RAW-Blue™ assay (Invivogen). Briefly, 100,000 RAW-Blue™ cells/well were incubated with 0.5 μg of CPMV and CCMV, 50 EU mL-1 E. coli endotoxin standard control (ThermoScientific), or culture media for 18 hours. Toll-like receptor (TLR) and nucleotide-binding oligomerization domain (NOD) stimulation was assessed by measuring the levels of secreted embryonic alkaline phosphatase (SEAP) using a QUANTI-Blue™ (Invivogen) assay. Absorbance was measured at 655 nm using a Tecan microplate reader.
The immunogenicity between CPMV and its peptide-conjugated counterparts was also assessed using a RAW-Blue™ assay. […] A QUANTI-Blue™ assay was run like before, and absorbance was measured at 655 nm.

[3] = test system: 4T1-Luc cells; experiment: 4T1-Luc i.v. challenge to CPMV pre-treated mice (prophylaxis); format: in vivo, Balb/c mice
Procedure: After 5 days, the mice were challenged by i.v. injection of 200,000 4T1-Luc cells. The mice were imaged with the IVIS using luminescent imaging every 3 days by injecting intraperitoneally (i.p.) 150 mg/kg of body weight D-luciferin. ROI measurements were taken through the Living Image 3.0 software. The weight of the mice was also tracked every 3 days. After 25 days (20 days after tumor inoculation), the lungs were collected and fixed in Bouin's solution for 3 days. Each tumor nodule on the lungs was counted manually and averaged between the mice in each group.
To determine whether the prophylactic effect of S100A9-targeted CPMV could be replicated in other tumor models, we first exposed Balb/C mice to CPMV and S100A9-targeted CPMV by i.v. injection, and then challenged mice with luciferase-labeled 4T1 (4T1-Luc) cells. This experimental lung metastatic model mimics metastatic triple negative breast cancer (TNBC). Tumor cell challenge was carried out 5 days post CPMV exposure (FIG. 4G). […] By day 21, all the mice in the PBS treatment group had to be sacrificed due to significant weight loss (FIG. 12B). […] The lungs were harvested after 25 days and fixed in Bouin's solution before manual counting of tumor nodules (FIG. 4H, FIG. 4I). […] There was no significant difference between the CPMV and the CPMV-G3.

[4] = test system: innate immune cells in the lungs (DCs, neutrophils, macrophages); experiment: Flow cytometry of innate immune cell profile in lungs; format: in vivo, C57BL/6 mice; conditions: 200 μg i.v., lungs after 24 h; FACS (FIG. 6C)
Procedure: Lungs were harvested after 24 hours. Harvested organs were each placed in separate gentle MACS C tubes (Miltenyi Biotec) and dissociated with enzymatic solutions (lung dissociation kits, Miltenyi Biotec). The C tube lid was tightly screwed, inverted, and inserted in a gentleMACS dissociator (Militenyi Biotec). Organs were minced and digested on appropriate gentleMACS programs. After digestion, cells were passed through 40 μm pore size strainers and centrifuged at 500 g for 5 min. The cell pellet was resuspended in 5 mL of 1× RBC lysis solution (eBioscience) and incubated at RT for 2 min, followed by the addition of RPMI-1640 medium to stop lysis. Cells were centrifuged again at 500 g for 5 min and resuspended in PBS with 1% BSA and 2 mM EDTA (FACS solution). Total cell count and viability were found using trypan blue solution (Sigma-Aldrich) and a Countess™ automated cell counter (Invitrogen). Cell concentrations were adjusted to 1.0×10^7 cells/mL.
To reduce background staining of antibodies, 0.25 μg of purified rat anti-mouse CD16/32 (Biolegend) was added to 100 μL cell suspensions before adding to the conjugated antibodies. Cells were incubated at RT for ten minutes prior to immunofluorescence staining. All antibodies for immunofluorescence staining were purchased from Biolegend and diluted in FACS solution according to the manufacturer's recommendation. […]

[5] = test system: B16F10 melanoma cells; experiment: B16F10 i.v. challenge to CPMV and CCMV pre-treated mice (prophylaxis); format: in vivo, C57BL/6J mice
From the text: After 7 days, the mice were challenged by i.v. administration of 200,000 B16F10 melanoma cells per mouse. Lungs were harvested at day 21 (day 14 after tumor inoculation) and fixed in a 10% (v/v) neutral-buffered formalin solution overnight. Following fixation, the lungs were stored in 70% (v/v) ethanol (EtOH), and the number of tumor nodules per lung was manually counted.
After tumor nodule counting, the fixed lung samples were submitted to the La Jolla Institute for Immunology for hematoxylin and eosin (H&E) staining and imaging. Paraffin-embedded blocks were sectioned at 4 μm on a Leica RM2125 RTS microtome. The sections were then floated on a 42° C. tissue flotation bath and mounted onto Fisher Superfrost Plus microscope slides and subjected to H&E staining. Scanning was accomplished using a ZEISS AxioScan Z1 using a 20× objective. The ratio of tumor cells to total cells was measured from the histology slides using QuPath software^68.
To investigate the suitability of S100A9-targeted VNPs to serve as a prophylactic immunotherapy preventing manifestation of lung metastasis, we used a lung metastasis mouse model using C57BL/6J mice i.v. challenged with B16F10 melanoma cells. C57BL/6J mice were pre-exposed to the CPMV (therapeutic) and CCMV (control) nanoparticles with and without the H6/G3 targeting ligands, one week before being challenged i.v. with B16F10 melanoma cells (FIG. 4A). Lungs were harvested 2 weeks post tumor challenge, and tumor nodules were manually counted. […] This experiment was repeated one more time with only the CPMV particles as well as the H6 peptide only control (FIG. 4D).

[6] = target: T1, S100A9 (Mus musculus, UniProt P31725); experiment: Confocal imaging of co-localization with S100A9 in tumor-bearing lung sections; format: in vivo, B16F10-inoculated mice
T1 construct: confocal imaging of tumor-bearing lungs sections was performed; from tissue; host or cells: lungs of B16F10-inoculated C57BL/6 mice
T1 sequence (P31725 1-113): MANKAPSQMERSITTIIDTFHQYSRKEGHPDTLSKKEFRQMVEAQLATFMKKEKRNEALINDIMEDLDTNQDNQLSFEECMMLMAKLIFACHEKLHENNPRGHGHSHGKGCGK

[7] = test system: 4T1-Luc cells; experiment: Treatment of 4T1-Luc lung metastasis (immunotherapy); format: in vivo, Balb/c mice; conditions: 200 μg i.v. 3 days post tumor inoculation
Procedure: 4T1-luc cells (100,000/mouse) were injected i.v. into female Balb/c mice (n=15). […] Tumor growth was monitored by total bioluminescence imaging based on the i.p. injection of 150 mg/kg of body weight D-luciferin. Total bioluminescence was determined using the Living Image 3.0 software, and ROI were quantified as average counts.
A representative IVIS image on day 9 is shown in FIG. 5E while further imaging can be found in FIG. 13. […] The unabated tumor growth led to the mice in the PBS and CPMV groups all dying within 15 days or reaching their clinical endpoints before being sacrificed (FIG. 13B).

[8] = target: T2, S100A9 (Homo sapiens, UniProt P06702); conditions: peptides that target or recognize and bind S100A9; screening described in Park et al. 2021; cited from earlier work
T2 sequence (P06702 1-114): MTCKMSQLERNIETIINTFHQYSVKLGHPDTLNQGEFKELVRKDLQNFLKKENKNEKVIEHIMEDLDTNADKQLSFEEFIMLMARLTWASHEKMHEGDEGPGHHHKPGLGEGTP

[9] = target: T3, CPMV-Cy5-PEG (cowpea mosaic virus nanoparticle without targeting peptide) (Cowpea mosaic virus, UniProt P03599 460-833; P03599 834-1022); experiment: confocal imaging of tumor-bearing mouse lung sections after i.v. injection of the particles, S100A9 stained with antibody
T3 sequence 1: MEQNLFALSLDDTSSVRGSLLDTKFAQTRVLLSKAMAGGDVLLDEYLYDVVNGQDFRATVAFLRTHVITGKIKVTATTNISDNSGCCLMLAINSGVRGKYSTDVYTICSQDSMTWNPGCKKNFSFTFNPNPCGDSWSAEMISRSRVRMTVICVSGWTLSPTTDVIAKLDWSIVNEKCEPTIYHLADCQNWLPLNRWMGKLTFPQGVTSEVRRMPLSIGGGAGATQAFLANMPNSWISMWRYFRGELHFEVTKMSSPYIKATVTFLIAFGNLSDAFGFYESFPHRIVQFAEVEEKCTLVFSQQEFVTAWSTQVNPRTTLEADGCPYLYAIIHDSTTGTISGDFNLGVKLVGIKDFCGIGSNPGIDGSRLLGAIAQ
T3 sequence 2: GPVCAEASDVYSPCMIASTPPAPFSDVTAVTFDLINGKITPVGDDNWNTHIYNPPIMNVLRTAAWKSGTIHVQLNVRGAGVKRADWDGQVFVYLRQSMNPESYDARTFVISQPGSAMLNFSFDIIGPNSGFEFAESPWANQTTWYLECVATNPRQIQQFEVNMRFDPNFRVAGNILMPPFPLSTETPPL

With Cowpea mosaic virus [CPMV] the “accumulation/clearance in liver (share of fluorescence signal)” value [1] was 75%, the “lung homing (in words)” value [1] was “do not home to the lungs; also recorded: did not accumulate in the lungs” and the “TLR and/or NOD agonism / immunostimulation (in words)” value ([2]; CPMV, peptide-conjugated CPMV and peptides only, 10 μg, 24 h (FIG. 6A)) was “strong TLR and/or NOD agonists”. For the same molecule, the “immunogenicity, activation of NF-κB and AP-1, CPMV compared to CCMV (in words)” value [2] was “much more immunogenic compared to CCMV; also recorded: higher level of activation; also recorded: immunostimulated by CPMV”, the “decrease in tumor nodules compared to PBS” value ([3]; 225 μg i.v. 5 days before challenge, lungs harvested after 25 days) was 10.6 fold and the “tumor growth by luminescent imaging (in words)” value ([3]; IVIS every 3 days, up to day 21) was “no signs of tumor growth by day 21”. The “side effects (in words)” value ([3]; throughout the experiment) was “no apparent side effects were observed”, the “weight of the mice (in words)” value ([3]; tracked every 3 days throughout the experiment) was “stayed fairly consistent” and the “immune cell recruitment and activation in the lungs (in words)” value [4] was “did not produce a significant impact”. The “reduction of the ratio of tumor:total cells” value ([5]; H&E lung histology, QuPath (FIG. 4F)) was 1.7 fold, the “decrease of tumor nodules (tumor burden) in the lungs compared to PBS” value ([5]; first study (FIG. 4C), 200 μg i.v. 7 days before challenge, lungs 2 weeks post challenge) was 2.1 fold and the “reduction of tumor nodules compared to PBS” value ([5]; repeated experiment (FIG. 4D)) was 1.7 fold. The “association/co-localization with S100A9 (in words)” value [6] was “no association with S100A9”, the “time by which all mice died or reached clinical endpoints” value [7] was at most 15 days and the “tumor burden / tumor growth by bioluminescence (in words)” value [7] was “significant tumor burden; also recorded: unable to slow 4T1-Luc tumor growth”.

In the case of “peptide that binds S100A9, ASSHIHHGGGS (SEQ ID NO: 10) [MTP2]”, the Kd [8] is given as 77.6 µM.

For cowpea chlorotic mottle virus [CCMV], the “accumulation/clearance in liver (share of fluorescence signal)” value [1] was 75%, the “lung homing (in words)” value [1] was “does not home to the lungs” and the “immunogenicity, activation of NF-κB and AP-1, CPMV compared to CCMV (in words)” value [2] was “immunostimulated by CPMV and not CCMV”. For the same molecule, the “effect on tumor burden in the lungs (in words)” value ([5]; first study (FIG. 4C), compared to PBS) was “This effect was not seen”.

In the case of “peptide that binds S100A9, HNHMADPGGGS (SEQ ID NO: 11) [MTP3]”, the Kd [8] is listed as 117 µM.

In the case of “scrambled control peptide MDPHAHNGGGS (SEQ ID NO: 16) [reference compound]”, the KD [8] is listed as “no binding”.

For “peptide that binds S100A9, ACNSVHQHHCGGGS (SEQ ID NO: 13) [MTP6]”, the Kd [8] is listed as 39.6 µM.

For “peptide that binds S100A9, ACNSHRHGACGGGS (SEQ ID NO: 12) [MTP5]”, the Kd [8] is listed as 67.6 µM.

B1: S100A9 (S100 calcium-binding protein A9), endogenous, in lung sections of B16F10 tumor-bearing C57BL/6 mice (other)
chain: ANKAPSQMERSITTIIDTFHQYSRKEGHPDTLSKKEFRQMVEAQLATFMKKEKRNEALINDIMEDLDTNQDNQLSFEECMMLMAKLIFACHEKLHENNPRGHGHSHGKGCGK
notes: also called MRP14; calgranulin B
B1: no binding [9].
